Where two headings read alike, the source gives them in different places.

One experiment has as its target ENPP-1 ECD (Homo sapiens (Human), UniProt P22413). The experiment is described as follows: Assay 2: inhibition of ENPP1 hydrolysis of 2′,3′-cGAMP (AMP-Glo, […] enzyme). Conditions: inhibition of ENPP1 hydrolysis of 2′,3′-cGAMP, no unit in Table 18 (Table 17 legend for this assay uses nM).
Experiment [1] has as its target ENPP1 on MDA-MB-231 cells (Homo sapiens (Human), UniProt P22413). The experiment is described as follows: Assay 3: inhibition of ENPP1 hydrolysis of AMP p-nitrophenyl ester on MDA-MB-231 cells.
Description: Hydrolysis of the p-nitrophenyl ester of AMP (pNP-AMP), an isostere of ATP, is selectively catalyzed by ENPP1 in the supernatant of MDA-MB-231 cell cultures. Inhibition of the hydrolysis of pNP-AMP by MDA-MB-231 at pH 7.4 and 37° C., is a good model of physiologically relevant activity of membrane-bound ENPP1 at disease-relevant expression levels.
MDA-MB-231 cells were harvested using TypLE Express Enzyme digestion and suspended in 100 μL of Leibovitz's L-15 Medium, 20% FBS, seeding the cells in a 96-well assay plate with 4.5×10^4 cells/well. Cells were incubated at 37° C. with 1% CO2 for 24 h. In a separate dilution plate, 2× of top dose of compound was prepared in phenol-red free 1640 medium without FBS and then 1:3 serial diluted in the same medium. The cell culture medium of L15 medium was aspirated carefully and cells were washed with PBS once, and 50 μL per well of test compound or DMSO blank were added to the assay plate. Substrate mix (50 μL; 0.5 mM pNP-AMP in phenol-red free 1640 media without FBS) was added for a pNP-AMP final concentration of 0.25 mM. The system was incubated at 37° C. for 3 h.
[2] abbreviates: read-out: Assay 3 (KI, app), apparent KI from IC50 via Cheng/Prusoff, pNP-AMP […], MDA-MB-231 cells, pH 7.4, 37° C., 3 h, unit inferred.

ENPP-1 ECD, sequence (P22413 98-925): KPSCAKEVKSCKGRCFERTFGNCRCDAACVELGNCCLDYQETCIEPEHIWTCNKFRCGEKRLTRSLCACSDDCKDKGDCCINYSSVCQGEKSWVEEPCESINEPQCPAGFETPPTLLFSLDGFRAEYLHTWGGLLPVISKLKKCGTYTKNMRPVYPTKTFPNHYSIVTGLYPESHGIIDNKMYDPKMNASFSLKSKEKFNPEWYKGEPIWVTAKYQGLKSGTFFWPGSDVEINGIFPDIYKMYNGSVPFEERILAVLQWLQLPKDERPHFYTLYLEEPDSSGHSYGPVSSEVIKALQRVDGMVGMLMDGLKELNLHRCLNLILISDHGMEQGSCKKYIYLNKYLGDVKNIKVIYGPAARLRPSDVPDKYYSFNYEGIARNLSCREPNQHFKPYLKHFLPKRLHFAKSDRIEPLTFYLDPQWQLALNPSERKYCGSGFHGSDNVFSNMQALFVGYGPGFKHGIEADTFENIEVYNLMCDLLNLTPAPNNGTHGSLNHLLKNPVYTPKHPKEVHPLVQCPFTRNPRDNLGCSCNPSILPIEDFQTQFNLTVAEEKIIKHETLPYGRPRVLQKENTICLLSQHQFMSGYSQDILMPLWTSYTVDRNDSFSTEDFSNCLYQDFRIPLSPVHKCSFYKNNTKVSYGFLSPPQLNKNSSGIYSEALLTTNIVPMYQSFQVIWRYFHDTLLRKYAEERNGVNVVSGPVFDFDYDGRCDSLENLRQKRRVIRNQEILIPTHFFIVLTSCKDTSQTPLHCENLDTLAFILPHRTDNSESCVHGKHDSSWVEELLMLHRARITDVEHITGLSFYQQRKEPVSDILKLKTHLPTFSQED
ENPP1 on MDA-MB-231 cells, sequence (P22413 whole entry): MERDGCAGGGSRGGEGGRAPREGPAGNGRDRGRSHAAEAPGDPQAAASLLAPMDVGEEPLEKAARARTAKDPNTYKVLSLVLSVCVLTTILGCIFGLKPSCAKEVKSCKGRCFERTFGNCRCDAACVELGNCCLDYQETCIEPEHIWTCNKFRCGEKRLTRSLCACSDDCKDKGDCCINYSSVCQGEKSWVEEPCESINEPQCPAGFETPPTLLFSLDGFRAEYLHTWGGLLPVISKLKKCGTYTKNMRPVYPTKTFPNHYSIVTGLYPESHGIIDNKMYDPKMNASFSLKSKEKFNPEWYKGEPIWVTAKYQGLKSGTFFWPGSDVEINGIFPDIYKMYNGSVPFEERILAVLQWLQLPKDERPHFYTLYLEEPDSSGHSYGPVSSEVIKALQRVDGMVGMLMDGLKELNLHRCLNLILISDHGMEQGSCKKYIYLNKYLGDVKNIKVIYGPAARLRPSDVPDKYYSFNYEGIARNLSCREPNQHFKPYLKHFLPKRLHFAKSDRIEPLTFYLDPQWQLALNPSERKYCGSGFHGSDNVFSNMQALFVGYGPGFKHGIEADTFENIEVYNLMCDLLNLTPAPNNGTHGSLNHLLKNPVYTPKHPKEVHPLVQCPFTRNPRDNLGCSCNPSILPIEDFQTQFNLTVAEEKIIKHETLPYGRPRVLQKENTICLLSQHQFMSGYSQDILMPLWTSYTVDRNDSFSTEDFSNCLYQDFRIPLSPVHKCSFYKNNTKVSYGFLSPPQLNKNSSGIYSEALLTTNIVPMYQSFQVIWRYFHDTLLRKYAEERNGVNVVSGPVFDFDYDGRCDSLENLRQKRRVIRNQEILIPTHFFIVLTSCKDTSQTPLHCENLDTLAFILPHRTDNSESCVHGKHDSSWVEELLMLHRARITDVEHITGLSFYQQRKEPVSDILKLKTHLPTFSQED
Description for ENPP-1 ECD: Assay 2: Compared to the conditions in Assay 1, this assay has a larger dynamic range and ensures the system is under steady-state conditions by reducing the enzyme concentration in the assay.
Test compounds were plated in a 3× dilution scheme in a 384 well plate. […] AMP Detection solution (10 μL) was added to each well, the plate centrifuged and incubated for 60 min.

Regarding `COc1cc2ncnc(OCc3cccc(S(C)(=N)=O)c3)c2cc1OC` (centres unmarked) [Compound 173, (3-{[(6,7-dimethoxyquinazolin-4-yl)oxy]methyl}phenyl)(imino)methyl-λ^6-sulfanone], the Ki on ENPP-1 ECD (Assay 2 (KI)) stood at 0.17 nM; in experiment [1], 9200 pM.
On to `COc1ccc2c(OCc3cccc(S(C)(=N)=O)c3)ncnc2c1` (centres unmarked) [Compound 174, imino(3-{[(7-methoxyquinazolin-4-yl)oxy]methyl}phenyl)methyl-λ^6-sulfanone], for which the Ki at ENPP-1 ECD (read-out: Assay 2 (KI)) was 5.2 nM; in experiment [1] (setting [2]) it was 240000 pM.
On to `COc1cc2nccc(OCc3cccc(S(C)(=N)=O)c3)c2cc1OC` (centres unmarked) [Compound 175, (3-{[(6,7-dimethoxyquinolin-4-yl)oxy]methyl}phenyl)(imino)methyl-λ^6-sulfanone], for which the Ki amounted to 0.037 nM on ENPP-1 ECD (Assay 2 (KI)) and 3500 pM in experiment [1].
On to `COc1cc2nccc(OCc3cccc([S@](C)(=N)=O)c3)c2cc1OC` [Compound 175a], for which the Ki on ENPP-1 ECD (read-out: Assay 2 (KI)) was determined as 0.011 nM; in experiment [1] (setting [2]), 530 pM.
Regarding `COc1cc2nccc(OCc3cccc(S(C)(=N)=O)c3)c2cc1Cl` (centres unmarked) [Compound 176, (3-{[(6-chloro-7-methoxyquinolin-4-yl)oxy]methyl}phenyl)(imino)methyl-λ^6-sulfanone], the Ki on ENPP-1 ECD (Assay 2 (KI)) came out at 0.094 nM; in experiment [1] it was 7200 pM.
Consider `COc1ccc2c(OCc3cc(F)cc(S(C)(=N)=O)c3)ccnc2c1` (centres unmarked) [Compound 177, (3-fluoro-5-{[(7-methoxyquinolin-4-yl)oxy]methyl}phenyl)(imino)methyl-λ^6-sulfanone], for which the Ki at ENPP-1 ECD (Assay 2 (KI)) is 0.03 nM; in experiment [1], 1500 pM.
For the compound `COc1ccc2c(OCc3cc(F)cc([S@](C)(=N)=O)c3)ccnc2c1` [Compound 177b], the Ki was 0.0085 nM on ENPP-1 ECD (read-out: Assay 2 (KI)) and 480 pM in experiment [1] (setting [2]).
For the compound `COc1cccc2c(N3CCC(CS(C)(=N)=O)CC3)c(C#N)cnc12` (centres unmarked) [Compound 179, 4-(4-{[imino(methyl)oxo-λ^6-sulfanyl]methyl}piperidin-1-yl)-8-methoxyquinoline-3-carbonitrile], the Ki at ENPP-1 ECD (Assay 2 (KI)) came to 0.048 nM; in experiment [1], 3300 pM.
For the compound `COc1cccc2c(N3CCC(C[S@](C)(=N)=O)CC3)c(C#N)cnc12` [Compound 179b], the Ki at ENPP-1 ECD (read-out: Assay 2 (KI)) turned out to be 0.014 nM; in experiment [1] (setting [2]), 630 pM.
Take `COc1cc2ncnc(N3CCC4(CCC(S(C)(=N)=O)C4)CC3)c2cc1OC` (centres unmarked) [Compound 181, [8-(6,7-dimethoxyquinazolin-4-yl)-8-azaspiro[4.5]decan-2-yl](imino)methyl-λ^6-sulfanone]: the Ki stood at 0.16 nM on ENPP-1 ECD (Assay 2 (KI)) and 28000 pM in experiment [1].
For `COc1cc2nccc(N3CC4(CC(CS(C)(=N)=O)C4)C3)c2cc1F` (centres unmarked) [Compound 184, {[2-(6-fluoro-7-methoxyquinolin-4-yl)-2-azaspiro[3.3]heptan-6-yl]methyl}(imino)methyl-λ^6-sulfanone], the Ki on ENPP-1 ECD (Assay 2 (KI)) stood at 0.13 nM; in experiment [1], 5500 pM.
On to `COc1cc2nccc(N3CC4(CC(C[S@@](C)(=N)=O)C4)C3)c2cc1F` [Compound 184a], for which the Ki on ENPP-1 ECD (read-out: Assay 2 (KI)) amounted to 0.1 nM; in experiment [1] (setting [2]), 1700 pM.
For `COc1cc2nccc(N3CC4(CC(C[S@](C)(=N)=O)C4)C3)c2cc1F` [Compound 184b], in that order: 2.5 nM and 58000 pM.
In the case of `COc1cccc2c(N3CCC(O)(CS(C)(=N)=O)CC3)ncnc12` (centres unmarked) [Compound 185, {[4-hydroxy-1-(8-methoxyquinazolin-4-yl)piperidin-4-yl]methyl}(imino)methyl-λ^6-sulfanone], the Ki on ENPP-1 ECD (Assay 2 (KI)) is 0.028 nM; in experiment [1], 450 pM.
Turning to `COc1cccc2c(N3CCC(O)(C[S@@](C)(=N)=O)CC3)ncnc12` [Compound 185a], the Ki stood at 0.013 nM at ENPP-1 ECD (read-out: Assay 2 (KI)) and 320 pM in experiment [1] (setting [2]).
As for `COc1cc2nccc(N3CC4(CC(CS(C)(=N)=O)C4)C3)c2cc1OC` (centres unmarked) [Compound 186, {[2-(6,7-dimethoxyquinolin-4-yl)-2-azaspiro[3.3]heptan-6-yl]methyl}(imino)methyl-λ^6-sulfanone], the Ki on ENPP-1 ECD (Assay 2 (KI)) was 0.38 nM; in experiment [1] it was 17000 pM.
Take `CCOc1cccc2c(N3CCC(CS(C)(=N)=O)CC3)ncnc12` (centres unmarked) [Compound 187, {[1-(8-ethoxyquinazolin-4-yl)piperidin-4-yl]methyl}(imino)methyl-λ^6-sulfanone]: the Ki was determined as 0.19 nM at ENPP-1 ECD (Assay 2 (KI)) and 4400 pM in experiment [1].
Take `COc1cc2nncc(N3CC4(CC(CS(C)(=N)=O)C4)C3)c2cc1OC` (centres unmarked) [Compound 188, {[2-(6,7-dimethoxycinnolin-4-yl)-2-azaspiro[3.3]heptan-6-yl]methyl}(imino)methyl-λ^6-sulfanone]: the Ki worked out at 0.074 nM at ENPP-1 ECD (Assay 2 (KI)) and 6500 pM in experiment [1].
For `COc1cccc2c(N3CCC(CS(=N)(=O)C4CC4)CC3)c(C#N)cnc12` (centres unmarked) [Compound 189, 4-(4-{[cyclopropyl(imino)oxo-λ^6-sulfanyl]methyl}piperidin-1-yl)-8-methoxyquinoline-3-carbonitrile], the results for the Ki (at ENPP-1 ECD (Assay 2 (KI)); in experiment [1]) were 0.033 nM and 450 pM, respectively.
For `COc1cccc2c(N3CCC(C[S@](=N)(=O)C4CC4)CC3)c(C#N)cnc12` [Compound 189b], the figures for the Ki (at ENPP-1 ECD (read-out: Assay 2 (KI)); in experiment [1] (setting [2])) were 0.0075 nM and 310 pM, respectively.
With `COc1cccc2c(N3CCC(CS(=N)(=O)C4CC4)CC3)ncnc12` (centres unmarked) [Compound 190, cyclopropyl(imino){[1-(8-methoxyquinazolin-4-yl)piperidin-4-yl]methyl}-λ^6-sulfanone], the Ki at ENPP-1 ECD (Assay 2 (KI)) came out at 0.19 nM; in experiment [1] it was 7300 pM.
For `COc1cccc2c(N3CCC(O)(CS(=N)(=O)C4CCC4)CC3)ncnc12` (centres unmarked) [Compound 191, cyclobutyl({[4-hydroxy-1-(8-methoxyquinazolin-4-yl)piperidin-4-yl]methyl})imino-λ^6-sulfanone], in that order: 0.34 nM and 15000 pM.
For `COc1cccc2c(N3CCC(O)(CS(=N)(=O)C4CC4)CC3)ncnc12` (centres unmarked) [Compound 193, cyclopropyl({[4-hydroxy-1-(8-methoxyquinazolin-4-yl)piperidin-4-yl]methyl})imino-λ^6-sulfanone], in that order: 0.023 nM and 620 pM.
For the compound `COc1cccc2c(N3CCC(O)(C[S@](=N)(=O)C4CC4)CC3)ncnc12` [Compound 193b], the Ki was determined as 0.012 nM at ENPP-1 ECD (read-out: Assay 2 (KI)) and 360 pM in experiment [1] (setting [2]).
Regarding `CCOc1cccc2c(N3CCC(O)(CS(C)(=N)=O)CC3)ncnc12` (centres unmarked) [Compound 196, {[1-(8-ethoxyquinazolin-4-yl)-4-hydroxypiperidin-4-yl]methyl}(imino)methyl-λ^6-sulfanone], the Ki was found to be 0.091 nM at ENPP-1 ECD (Assay 2 (KI)) and 2300 pM in experiment [1].
In the same order, the values of `CCOc1cccc2c(N3CCC(CS(C)(=N)=O)CC3)c(C#N)cnc12` (centres unmarked) [Compound 197, 8-ethoxy-4-(4-{[imino(methyl)oxo-λ^6-sulfanyl]methyl}piperidin-1-yl)quinoline-3-carbonitrile] are 0.04 nM and 2300 pM.
In the same order, the values of `COc1cccc2c(N3CCC(O)(CS(C)(=N)=O)CC3)c(C#N)cnc12` (centres unmarked) [Compound 198, 4-(4-hydroxy-4-{[imino(methyl)oxo-λ^6-sulfanyl]methyl}piperidin-1-yl)-8-methoxyquinoline-3-carbonitrile] are 0.014 nM and 200 pM.
As for `COc1cccc2c(N3CCC(O)(C[S@@](C)(=N)=O)CC3)c(C#N)cnc12` [Compound 198a], the Ki on ENPP-1 ECD (read-out: Assay 2 (KI)) worked out at 0.0025 nM; in experiment [1] (setting [2]), 86 pM.
On to `COc1cccc2c(N3CCC(O)(CS(C)(=N)=O)CC3)nc(C)nc12` (centres unmarked) [Compound 199, {[4-hydroxy-1-(8-methoxy-2-methylquinazolin-4-yl)piperidin-4-yl]methyl}(imino)methyl-λ^6-sulfanone], for which the values for the Ki (on ENPP-1 ECD (Assay 2 (KI)); in experiment [1]) were 0.43 nM and 8800 pM, respectively.
Consider `CS(=N)(=O)CC1CCN(c2c(C#N)cnc3c(OCF)cccc23)CC1` (centres unmarked) [Compound 200, 8-(fluoromethoxy)-4-(4-{[imino(methyl)oxo-λ^6-sulfanyl]methyl}piperidin-1-yl)quinoline-3-carbonitrile], for which the Ki came to 0.019 nM on ENPP-1 ECD (Assay 2 (KI)) and 410 pM in experiment [1].
With `COc1cccc2c(N3CCC(CS(C)(=N)=O)CC3)c(C#N)c(C)nc12` (centres unmarked) [Compound 201, 4-(4-{[imino(methyl)oxo-λ^6-sulfanyl]methyl}piperidin-1-yl)-8-methoxy-2-methylquinoline-3-carbonitrile], the figures for the Ki (on ENPP-1 ECD (Assay 2 (KI)); in experiment [1]) were 0.69 nM and 12000 pM, respectively.
Consider `COc1cc2nccc(N3CCC4(CC3)CCN(S(C)(=N)=O)C4)c2cc1F` (centres unmarked) [Compound 205, [8-(6-fluoro-7-methoxyquinolin-4-yl)-2,8-diazaspiro[4.5]decan-2-yl](imino)methyl-λ^6-sulfanone], for which the results for the Ki (at ENPP-1 ECD (Assay 2 (KI)); in experiment [1]) were 0.032 nM and 2200 pM, respectively.
Regarding `COc1cc2nccc(N3CCC4(CC3)CCN([S@@](C)(=N)=O)C4)c2cc1F` [Compound 205b], the figures for the Ki (on ENPP-1 ECD (read-out: Assay 2 (KI)); in experiment [1] (setting [2])) were 0.0057 nM and 120 pM, respectively.
For the compound `COc1cc2ncnc(N3CCC4(CCN(S(C)(=N)=O)CC4)C3)c2cc1OC` (centres unmarked) [Compound 207, [2-(6,7-dimethoxyquinazolin-4-yl)-2,8-diazaspiro[4.5]decan-8-yl](imino)methyl-λ^6-sulfanone], the Ki was determined as 0.037 nM on ENPP-1 ECD (Assay 2 (KI)) and 3300 pM in experiment [1].
Take `COc1cc2nccc(N3CCC4(CC3)CCN(S(C)(=N)=O)C4)c2cc1OC` (centres unmarked) [Compound 208, [8-(6,7-dimethoxyquinolin-4-yl)-2,8-diazaspiro[4.5]decan-2-yl](imino)methyl-λ^6-sulfanone]: the Ki at ENPP-1 ECD (Assay 2 (KI)) came to 0.021 nM; in experiment [1] it was 210 pM.
Take `COc1cc2nccc(N3CCC4(CC3)CCN([S@@](C)(=N)=O)C4)c2cc1OC` [Compound 208a]: the figures for the Ki (at ENPP-1 ECD (read-out: Assay 2 (KI)); in experiment [1] (setting [2])) were 1.1 nM and 55000 pM, respectively.
For `COc1cc2nccc(N3CCC4(CC3)CCN([S@](C)(=N)=O)C4)c2cc1OC` [Compound 208b], in that order: 0.0078 nM and 160 pM.

Values taken from patent publication US11780849B2, “Imino sulfanone inhibitors of ENPP1” (Volastra Therapeutics, Inc., priority 2020, dated 2023).
